From patent US10407467B2, “Polymyxin derivatives and their use in combination therapy together with different antibiotics” (priority 2013, dated 2019) come the findings set out here.

Each structure is given as a SMILES string. Structures can show the parent of a compound that is named as a salt. Where two headings read alike, the source gives them in different places. Bridge positions count the residues as written; N and C are the ends. Square brackets hold non-standard residues; d marks the D form. Peptide text beside a SMILES is read from it. * marks the point of attachment. ξ: configuration not given here. Acetyl(2-(piperazin-1-yl)) = O=C(CN1CCNCC1)*; ξHexahydromandeloyl = O=C(C(O)C1CCCCC1)*; Thr(3ξ) = CC(O)[C@H](N)C(=O)O; X10 = NC1(CC(=O)*)CCCCC1; Dab = NCC[C@H](N)C(=O)O; Dap = NC[C@H](N)C(=O)O

Assay [1] has as its system Escherichia coli. As to the kind of experiment: MIC, compound in combination with a second agent (broth microdilution). As to conditions: 1:1 (wt:wt) combination with Rifampicin, MIC = total drug concentration; for MIC E. coli ATCC25922: strain ATCC25922. Type of assay: cell-based. A digest of the protocol:
(§1)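 Isolated colonies from an 18-24 hour Mueller-Hinton agar plate are suspended to the 0.5 McFarland standard, then tested against 1:1 w/w mixtures of compound and a second antibacterial such as rifampicin. Reported MICs represent total drug (both components).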
On the technique in general: Broth dilution looks for growth in wells or tubes with falling amounts of substance.

The test system of assay [2] is Klebsiella pneumoniae. Described as above. The note with it: 1:1 (wt:wt) combination with Rifampicin, MIC = total drug concentration; for MIC K. pneumoniae ATCC 4352: strain ATCC 4352; for MIC K. pneumoniae ATCC-BAA-2146: strain ATCC-BAA-2146; for MIC K. pneumoniae CCUG-59348: strain CCUG-59348. It counts as cell-based. A digest of the protocol: as §1
Assay [3] deals with Pseudomonas aeruginosa. The assay is described as above. It counts as cell-based. The note with it: 1:1 (wt:wt) combination with Rifampicin, MIC = total drug concentration; for MIC P. aeruginosa ATCC 27853: strain ATCC 27853; for MIC P. aeruginosa CCUG 59626: strain CCUG 59626; for MIC P. aeruginosa ATCC CRM-9027: strain ATCC CRM-9027; for MIC P. aeruginosa ATCC-47: strain ATCC-47. The gist of the method:
as §1

Assay [4] deals with P. aeruginosa ATCC 27853. The note with it: for effect on thigh burdens: 2 or 4 mg/kg IV three times at 1, 3.5 and 6 hours post infection; for Log reduction from vehicle (CFU/g): ATCC 27853, in vivo, iv, 6 h.
The subject of assay [5] is Acinetobacter baumannii. As to the kind of experiment: MIC, compound in combination with a second agent (broth microdilution). Type of assay: cell-based. As to conditions: 1:1 (wt:wt) combination with Rifampicin, MIC = total drug concentration; for MIC A. baumannii CCUG57249: strain CCUG57249; for MIC A. baumannii NCTC 13423: strain NCTC 13423; for MIC A. baumannii NCTC 13424: strain NCTC 13424. The gist of the method: as §1

The subject of assay [6] is Acinetobacter baumannii. As to the kind of experiment: MIC, sole activity (no second agent). It counts as cell-based. As to conditions: in the absence of Rifampicin; for MIC A. baumannii ATCC13424: strain ATCC13424; for MIC A. baumannii CCUG57249: strain CCUG 57249. The gist of the method: (§2)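 Compound tested without a second agent in cation-adjusted MHB, up to four strains per species, inoculum at 0.5 McFarland from colonies grown 18-24 h on Mueller-Hinton agar. Run in duplicate, invalid beyond 2-fold disagreement, lower duplicate or modal repeat value given, expressed relative to Polymyxin B.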

Assay [7] has as its system Escherichia coli. As to the kind of experiment: MIC, sole activity (no second agent). Type of assay: cell-based. As to conditions: in the absence of Rifampicin. A digest of the protocol:
as §2

The subject of assay [8] is Klebsiella pneumoniae. As to the kind of experiment: MIC, sole activity (no second agent). As to conditions: in the absence of Rifampicin; for MIC K. pneumoniae ATCC 4352: strain ATCC 4352; for MIC K. pneumoniae CCUG-59348: strain CCUG-59348. Type of assay: cell-based. The gist of the method: as §2
Assay [9] concerns Pseudomonas aeruginosa. As to the kind of experiment: MIC, sole activity (no second agent). Type of assay: cell-based. As to conditions: in the absence of Rifampicin; for MIC P. aeruginosa ATCC 27853: strain ATCC27853; for MIC P. aeruginosa ATCC-47: strain ATCC-47; for MIC P. aeruginosa CCUG 59626: strain CCUG 59626. A digest of the protocol:
as §2

Turning to `CC(C)C[C@@H]1NC(=O)[C@@H](Cc2ccccc2)NC(=O)[C@H](CCN)NC(=O)[C@@H](NC(=O)[C@H](CCN)NC(=O)[C@@H](NC(=O)CN2CCNCC2)C(C)O)CCNC(=O)[C@H](C(C)O)NC(=O)[C@H](CCN)NC(=O)[C@H](CCN)NC1=O` (some centres unmarked) [Example 52, (1-piperazine) ethanoyl polymyxin B nonapeptide, trifluoroacetate salt] ({Acetyl(2-(piperazin-1-yl))}-[Thr(3ξ)][Dab][Dab][Dab][dF]L[Dab][Dab][Thr(3ξ)]; lactam 3-C), in assay [1], the “MIC E. coli ATCC25922” value is given as not above 0.06 micrograms/mL. Also, in assay [2], the “MIC K. pneumoniae ATCC 4352” value came to 0.125 micrograms/mL, the “MIC K. pneumoniae ATCC-BAA-2146” value was 1 micrograms/mL and the “MIC K. pneumoniae CCUG-59348” value is 8 micrograms/mL. In [3], the “MIC P. aeruginosa ATCC 27853” value is on record as 0.125 micrograms/mL and the “MIC P. aeruginosa CCUG 59626” value stood at 0.125 micrograms/mL. Besides, in assay [4], the “effect on thigh burdens” value is on record as “did not reduce thigh burdens significantly”. In assay [4] (2 mg/kg), the “Log reduction from vehicle (CFU/g)” value is on record as −0.14 log CFU/g. Besides, the “Log reduction from vehicle (CFU/g)” value in assay [4] (4 mg/kg) is −0.18 log CFU/g.
On to `CC(C)C[C@@H]1NC(=O)[C@@H](Cc2ccccc2)NC(=O)[C@H](CCN)NC(=O)[C@@H](NC(=O)[C@H](CCN)NC(=O)[C@@H](NC(=O)CC2(N)CCCCC2)C(C)O)CCNC(=O)[C@H](C(C)O)NC(=O)[C@H](CCN)NC(=O)[C@H](CCN)NC1=O` (some centres unmarked) [Example 42, 2-(1-aminocyclohexyl) ethanoyl Polymyxin B nonapeptide TFA salt] (X10-[Thr(3ξ)][Dab][Dab][Dab][dF]L[Dab][Dab][Thr(3ξ)]; lactam 3-C), for which, in [5] (strain ATCC BAA-747), the “MIC A. baumannii ATCC BAA-747” value was determined as 0.125 micrograms/mL. Further, in [5], the “MIC A. baumannii CCUG57249” value was not above 0.06 micrograms/mL, the “MIC A. baumannii NCTC 13423” value is listed as not above 0.06 micrograms/mL and the “MIC A. baumannii NCTC 13424” value is given as not above 0.06 micrograms/mL. Moreover, the “MIC E. coli ATCC25922” value in assay [1] is on record as not above 0.06 micrograms/mL. The “MIC E. coli NCTC9001” value in assay [1] (strain NCTC9001) is on record as 0.125 micrograms/mL. Moreover, in assay [2], the “MIC K. pneumoniae ATCC-BAA-2146” value is listed as 0.125 micrograms/mL and the “MIC K. pneumoniae CCUG-59348” value turned out to be 4 micrograms/mL. In assay [3], the “MIC P. aeruginosa ATCC 27853” value was determined as 0.125 micrograms/mL, the “MIC P. aeruginosa ATCC CRM-9027” value is listed as 0.25 micrograms/mL, the “MIC P. aeruginosa ATCC-47” value is not above 0.06 micrograms/mL and the “MIC P. aeruginosa CCUG 59626” value was determined as 0.125 micrograms/mL. Also, the “effect on thigh burdens” value in [4] is given as “did not reduce thigh burdens significantly”. Also, the “Log reduction from vehicle (CFU/g)” value in assay [4] (2 mg/kg) is on record as −0.03 log CFU/g. The “Log reduction from vehicle (CFU/g)” value in assay [4] (4 mg/kg) is −0.28 log CFU/g.
As for `CC(C)C[C@@H]1NC(=O)[C@@H](Cc2ccccc2)NC(=O)[C@H](CCN)NC(=O)[C@@H](NC(=O)[C@H](CCN)NC(=O)[C@@H](NC(=O)C(O)C2CCCCC2)C(C)O)CCNC(=O)[C@H](C(C)O)NC(=O)[C@H](CCN)NC(=O)[C@H](CCN)NC1=O` (mixture of isomers) [Example 27, 2-(RS)-(2-Hydroxy-2-cyclohexyl)ethanoyl polymyxin B nonapeptide], in [5], the “MIC A. baumannii CCUG57249” value was 0.5 micrograms/mL and the “MIC A. baumannii NCTC 13424” value amounted to 0.5 micrograms/mL. Besides, the “MIC E. coli ATCC25922” value in assay [1] turned out to be 0.25 micrograms/mL. In addition, in assay [2], the “MIC K. pneumoniae ATCC 4352” value is 0.125 micrograms/mL and the “MIC K. pneumoniae CCUG-59348” value amounted to 2 micrograms/mL. Further, in assay [2] (strain NCTC 13438), the “MIC K. pneumoniae NCTC 13438” value turned out to be 0.5 micrograms/mL. Further, in assay [3], the “MIC P. aeruginosa ATCC 27853” value was 0.25 micrograms/mL, the “MIC P. aeruginosa ATCC-47” value is listed as 0.5 micrograms/mL and the “MIC P. aeruginosa CCUG 59626” value was 0.5 micrograms/mL. In assay [6], the “MIC A. baumannii ATCC13424” value was determined as 4 micrograms/mL and the “MIC A. baumannii CCUG57249” value was found to be 4 micrograms/mL. In addition, the “MIC E. coli ATCC25922” value in [7] (strain ATCC25922) worked out at 2 micrograms/mL. In assay [8], the “MIC K. pneumoniae ATCC 4352” value was determined as 2 micrograms/mL and the “MIC K. pneumoniae CCUG-59348” value was more than 8 micrograms/mL. For the same molecule, the “MIC K. pneumoniae NCTC-13438” value in [8] (strain NCTC-13438) is more than 8 micrograms/mL. For the same molecule, in [9], the “MIC P. aeruginosa ATCC 27853” value amounted to 0.125 micrograms/mL, the “MIC P. aeruginosa ATCC-47” value amounted to 2 micrograms/mL and the “MIC P. aeruginosa CCUG 59626” value turned out to be 0.25 micrograms/mL. Also, the “effect on thigh burdens” value in assay [4] is recorded as “did not reduce thigh burdens significantly”. Also, in assay [4] (2 mg/kg), the “Log reduction from vehicle (CFU/g)” value is 0.24 log CFU/g. Moreover, the “Log reduction from vehicle (CFU/g)” value in assay [4] (4 mg/kg) is −0.58 log CFU/g.
With `CC(C)C[C@@H]1NC(=O)[C@@H](Cc2ccccc2)NC(=O)[C@H](CCN)NC(=O)[C@@H](NC(=O)[C@H](CN)NC(=O)[C@@H](NC(=O)C(O)C2CCCCC2)C(C)O)CCNC(=O)[C@H](C(C)O)NC(=O)[C@H](CCN)NC(=O)[C@H](CCN)NC1=O` (stereo partly drawn) [Example 45, [2-cyclohexyl-2-hydroxyethanoyl]-L-Thr-L-Dap-polymyxin B heptapeptide, TFA salt] (ξHexahydromandeloyl-[Thr(3ξ)][Dap][Dab][Dab][dF]L[Dab][Dab][Thr(3ξ)]; lactam 3-C), in assay [5], the “MIC A. baumannii CCUG57249” value came to 0.25 micrograms/mL, the “MIC A. baumannii NCTC 13423” value is given as 0.125 micrograms/mL and the “MIC A. baumannii NCTC 13424” value amounted to 0.125 micrograms/mL. Besides, in [1], the “MIC E. coli ATCC25922” value is recorded as not above 0.06 micrograms/mL. Also, in [2], the “MIC K. pneumoniae ATCC 4352” value was determined as 0.25 micrograms/mL, the “MIC K. pneumoniae ATCC-BAA-2146” value came out at 0.5 micrograms/mL and the “MIC K. pneumoniae CCUG-59348” value is 1 micrograms/mL. For the same molecule, in assay [3], the “MIC P. aeruginosa ATCC 27853” value was found to be 0.5 micrograms/mL, the “MIC P. aeruginosa ATCC CRM-9027” value is listed as 0.5 micrograms/mL, the “MIC P. aeruginosa ATCC-47” value was 0.25 micrograms/mL and the “MIC P. aeruginosa CCUG 59626” value was determined as 0.25 micrograms/mL. Also, in assay [6], the “MIC A. baumannii ATCC13424” value was determined as 1 micrograms/mL and the “MIC A. baumannii CCUG57249” value is 2 micrograms/mL. In addition, the “MIC A. baumannii ATCCBAA-747” value in assay [6] (strain ATCCBAA-747) came out at 2 micrograms/mL. In [6] (strain NCTC13423), the “MIC A. baumannii NCTC 13423” value amounted to 1 micrograms/mL. Besides, the “MIC E. coli NCTC9001” value in assay [7] (strain NCTC9001) is recorded as 16 micrograms/mL. Further, in [8], the “MIC K. pneumoniae ATCC 4352” value turned out to be 0.25 micrograms/mL and the “MIC K. pneumoniae CCUG-59348” value worked out at 32 micrograms/mL. Moreover, the “MIC K. pneumoniae ATCC-BAA2146” value in assay [8] (strain ATCC-BAA2146) turned out to be 2 micrograms/mL. Besides, in assay [9], the “MIC P. aeruginosa ATCC 27853” value is reported as 0.25 micrograms/mL, the “MIC P. aeruginosa ATCC-47” value is listed as 1 micrograms/mL and the “MIC P. aeruginosa CCUG 59626” value turned out to be 0.125 micrograms/mL. Also, the “MIC P. aeruginosa ATCCCRM-9027” value in assay [9] (strain ATCCCRM-9027) was 0.125 micrograms/mL.
